Results from patent publication US8343475B2, “Small cationic antimicrobial peptides” (priority 2006, dated 2013).
In brackets after ≈: the same amount, converted by molar mass. Read-outs that look alike come from different tables or passages of the source. Residues, ends and D or L forms follow the SMILES beside them.

Tests used:
Type in all cases: cell-based
[1] = tested on: wild-type Salmonella enterica ssp. typhimurium
Protocol: (§1) Minimal inhibitory concentration (MIC) determination. The MIC of the peptides were measured using a modified broth microdilution method in Mueller Hinton (MH) medium (Wu M, Hancock R E W. 1999. Interaction of the cyclic antimicrobial cationic peptide bactenecin with the outer and cytoplasmic membrane. J Biol Chem 274, 29-35). Briefly, the peptides were dissolved and stored in glass vials. The assay was performed in sterile 96-well polypropylene microtitre plates were used. Serial dilutions of the peptides to be assayed were performed in 0.01% acetic acid (Fisher) containing 0.2% bovine serum albumin (Boehringer Mannheim GmbH) at 10× the desired final concentration. Ten microlitres of the 10× peptides were added to each well of a 96-well polypropylene plate containing 90 μl of MH media per well. Bacteria were added to the plate from an overnight culture at 2-7×10^5 colony forming units/ml and incubated over night at 37° C. The MIC was taken as the concentration at which no growth was observed.
(§2) Strains. For the killing assay a mini-Tn5-lux mutant in Pseudomonas aeruginosa H103 was used. The strain is called H1001 and contains a fliC::luxCDABE transcriptional fusion resulting in constitutive expression of luciferase. The bacterial strains used for the antimicrobial activity assays included Escherichia coli UB1005 (F-, nalA37, metB1), a wild-type Salmonella enterica ssp. typhimurium (S. typhimurium), wild-type Pseudomonas aeruginosa PAO1 strain H103, Enterococcus faecalis ATCC29212, Staphylococcus aureus ATCC25923, and a clinical isolate of Staphylococcus epidermidis obtained from Dr. D. Speert (Department of Medicine, University of British Columbia). Antifungal activity was tested using a lab isolate of Candida albicans obtained from Dr. B. Dill (Department of Microbiology and Immunology, University of British Columbia).

[2] = tested on: Enterococcus faecalis ATCC29212
Protocol: as §1, §2

[3] = tested on: Escherichia coli UB1005
Protocol: as §1, §2

[4] = tested on: Staphylococcus aureus ATCC25923
Protocol: as §1, §2

[5] = tested on: lab isolate of Candida albicans
Protocol: as §1, §2

[6] = tested on: clinical isolate of Staphylococcus epidermidis
Protocol: as §1, §2

[7] = tested on: Pseudomonas aeruginosa PAO1 strain H103
Protocol: The biological activity of the peptides can be determined by standard methods known to those of skill in the art, such as “minimal inhibitory concentration (MIC)” assay described in the present examples, whereby the lowest concentration at which no change in OD is observed for a given period of time is recorded as MIC.
as §1, §2

[8] = indolicidin substitution variants (Table 4)

| SMILES | MIC S. typhi [1] [µg/mL] | MIC E. faecalis ([2]; ATCC29212) [µg/mL] | MIC E. coli [3, 8] [µg/mL] | MIC S. aureus ([4]; ATCC25923) [µg/mL] | MIC C. albicans ([5]; lab isolate of) [µg/mL] | MIC S. epi. ([6]; clinical isolate of) [µg/mL] | MIC P. aerug ([7]; PAO1) [µg/mL] | MIC E. coli ([3]; UB1005) [µg/mL] | MIC E. faecalis [2, 8] [µg/mL] | MIC S. aureus [4, 8] [µg/mL] | MIC C. albicans [5, 8] [µg/mL] | MIC S. epi. [6, 8] [µg/mL] | MIC P. aerug [7, 8] [µg/mL] |
| --- | --- | --- | --- | --- | --- | --- | --- | --- | --- | --- | --- | --- | --- |
| CC[C@H](C)[C@H](N)C(=O)N[C@@H](CC(C)C)C(=O)N[C@@H](CCCCN)C(=O)N[C@@H](Cc1c[nH]c2ccccc12)C(=O)N[C@@H](CCCCN)C(=O)N[C@@H](Cc1c[nH]c2ccccc12)C(=O)N1CCC[C@H]1C(=O)N[C@@H](Cc1c[nH]c2ccccc12)C(=O)N[C@@H](Cc1c[nH]c2ccccc12)C(=O)N[C@@H](CCCCN)C(=O)N[C@@H](Cc1c[nH]c2ccccc12)C(=O)N[C@@H](CCCNC(=N)N)C(=O)N[C@@H](CCCNC(=N)N)C(N)=O [HH970, ILKWKWPWWKWRR] (H-ILKWKWPWWKWRR-NH2; N-terminus assumed) | 16 (≈ 8.13 µM) | 31 (≈ 15.7 µM) | 8 (≈ 4.06 µM) | 8 (≈ 4.06 µM) | 16 (≈ 8.13 µM) | 2 (≈ 1.02 µM) | 16 (≈ 8.13 µM) | – | – | – | – | – | – |
| CC[C@H](C)[C@H](NC(=O)[C@@H](N)CCCCN)C(=O)N[C@@H](Cc1c[nH]c2ccccc12)C(=O)N[C@H](C(=O)N[C@@H](CCCNC(=N)N)C(=O)N[C@@H](Cc1c[nH]c2ccccc12)C(=O)N[C@@H](CCCCN)C(N)=O)C(C)C [HH17, KIWVRWK-NH2] (H-KIWVRWK-NH2) | >50 | >50 | – | >50 | >50 | >50 | >50 | 50 (≈ 49.3 µM) | – | – | – | – | – |
| CC[C@H](C)[C@H](NC(=O)[C@H](CCCNC(=N)N)NC(=O)[C@H](CC(C)C)NC(=O)[C@H](CCCNC(=N)N)NC(=O)[C@@H](N)C(C)C)C(=O)N[C@@H](CCCNC(=N)N)C(=O)N[C@H](C(=O)N[C@@H](Cc1c[nH]c2ccccc12)C(=O)N[C@H](C(=O)N[C@H](C(=O)N[C@@H](CCCNC(=N)N)C(=O)N[C@@H](C)C(N)=O)[C@@H](C)CC)C(C)C)C(C)C [HH6, VRLRIRVWVIRA] (H-VRLRIRVWVIRA-NH2) | 12 (≈ 7.81 µM) | 6 (≈ 3.91 µM) | – | 6 (≈ 3.91 µM) | 25 (≈ 16.3 µM) | 1.6 (≈ 1.04 µM) | 12 (≈ 7.81 µM) | 3 (≈ 1.95 µM) | – | – | – | – | – |
| CC[C@H](C)[C@H](NC(=O)[C@H](CCCNC(=N)N)NC(=O)[C@H](CC(C)C)NC(=O)[C@H](CCCNC(=N)N)NC(=O)[C@@H](N)C(C)C)C(=O)N[C@@H](CCCNC(=N)N)C(=O)N[C@H](C(=O)N[C@@H](C)C(=O)N[C@H](C(=O)N[C@@H](CCCNC(=N)N)C(=O)N[C@@H](CCCNC(=N)N)C(=O)N[C@@H](C)C(N)=O)C(C)C)C(C)C [HH7, VRLRIRVAVRRA] (H-VRLRIRVAVRRA-NH2) | 6 (≈ 4.1 µM) | 25 (≈ 17.1 µM) | – | 12 (≈ 8.2 µM) | 6 (≈ 4.1 µM) | 1.6 (≈ 1.09 µM) | 12 (≈ 8.2 µM) | 6 (≈ 4.1 µM) | – | – | – | – | – |
| CC[C@H](C)[C@H](N)C(=O)N[C@@H](CC(C)C)C(=O)N1CCC[C@H]1C(=O)N[C@@H](Cc1c[nH]c2ccccc12)C(=O)N[C@@H](CCCCN)C(=O)N[C@@H](CCCCN)C(=O)N1CCC[C@H]1C(=O)N[C@@H](Cc1c[nH]c2ccccc12)C(=O)N[C@@H](Cc1c[nH]c2ccccc12)C(=O)N1CCC[C@H]1C(=O)N[C@@H](Cc1c[nH]c2ccccc12)C(=O)N[C@@H](CCCNC(=N)N)C(=O)N[C@@H](CCCNC(=N)N)C(N)=O [HH113, ILPWKKPWWPWRR] (H-ILPWKKPWWPWRR-NH2; N-terminus assumed) | 62 (≈ 33.5 µM) | 125 (≈ 67.6 µM) | 31 (≈ 16.8 µM) | 31 (≈ 16.8 µM) | 62 (≈ 33.5 µM) | 8 (≈ 4.33 µM) | 31 (≈ 16.8 µM) | – | – | – | – | – | – |
| CC[C@H](C)[C@H](NC(=O)[C@H](CCCNC(=N)N)NC(=O)[C@H](CC(C)C)NC(=O)[C@H](CCCNC(=N)N)NC(=O)[C@@H](N)CCC(N)=O)C(=O)N[C@@H](CCCNC(=N)N)C(=O)N[C@H](C(=O)N[C@@H](C)C(=O)N[C@H](C(=O)N[C@H](C(=O)N[C@@H](CCCNC(=N)N)C(=O)N[C@@H](C)C(N)=O)[C@@H](C)CC)C(C)C)C(C)C [HH1, QRLRIRVAVIRA] (H-QRLRIRVAVIRA-NH2) | 25 (≈ 17.2 µM) | 50 (≈ 34.5 µM) | – | 50 (≈ 34.5 µM) | 25 (≈ 17.2 µM) | 12 (≈ 8.28 µM) | 50 (≈ 34.5 µM) | 6 (≈ 4.14 µM) | – | – | – | – | – |
| CC[C@H](C)[C@H](NC(=O)[C@H](CCCNC(=N)N)NC(=O)[C@H](Cc1ccccc1)NC(=O)[C@H](CCCNC(=N)N)NC(=O)[C@@H](N)C(C)C)C(=O)N[C@@H](CCCNC(=N)N)C(=O)N[C@H](C(=O)N[C@@H](C)C(=O)N[C@H](C(=O)N[C@H](C(=O)N[C@@H](CCCNC(=N)N)C(=O)N[C@@H](C)C(N)=O)[C@@H](C)CC)C(C)C)C(C)C [HH3, VRFRIRVAVIRA] (H-VRFRIRVAVIRA-NH2) | 6 (≈ 4.12 µM) | 25 (≈ 17.2 µM) | – | 12 (≈ 8.25 µM) | 6 (≈ 4.12 µM) | 1.6 (≈ 1.1 µM) | 6 (≈ 4.12 µM) | 1.6 (≈ 1.1 µM) | – | – | – | – | – |
| CC[C@H](C)[C@H](N)C(=O)N[C@@H](CC(C)C)C(=O)N1CCC[C@H]1C(=O)N[C@@H](Cc1c[nH]c2ccccc12)C(=O)N[C@@H](CCCCN)C(=O)N[C@@H](Cc1c[nH]c2ccccc12)C(=O)N[C@@H](CCCNC(=N)N)C(=O)N[C@@H](Cc1c[nH]c2ccccc12)C(=O)N[C@@H](Cc1c[nH]c2ccccc12)C(=O)N[C@@H](CCCCN)C(=O)N[C@@H](Cc1c[nH]c2ccccc12)C(=O)N[C@@H](CCCNC(=N)N)C(=O)N[C@@H](CCCNC(=N)N)C(N)=O [HH971, ILPWKWRWWKWRR] (H-ILPWKWRWWKWRR-NH2; N-terminus assumed) | 16 (≈ 8.01 µM) | 31 (≈ 15.5 µM) | 8 (≈ 4.01 µM) | 8 (≈ 4.01 µM) | 8 (≈ 4.01 µM) | 2 (≈ 1 µM) | 16 (≈ 8.01 µM) | – | – | – | – | – | – |
| CC[C@H](C)[C@H](NC(=O)[C@H](CCCNC(=N)N)NC(=O)[C@H](Cc1c[nH]c2ccccc12)NC(=O)[C@H](CCC(N)=O)NC(=O)[C@@H](N)Cc1c[nH]cn1)C(=O)N[C@@H](CCCNC(=N)N)C(=O)N[C@H](C(=O)N[C@@H](C)C(=O)N[C@H](C(=O)N[C@@H](CCCNC(=N)N)C(=O)N[C@@H](CCCNC(=N)N)C(=O)N[C@@H](Cc1c[nH]cn1)C(N)=O)C(C)C)C(C)C [HH14, HQWRIRVAVRRH] (H-HQWRIRVAVRRH-NH2) | 25 (≈ 15.5 µM) | >50 | – | 25 (≈ 15.5 µM) | 25 (≈ 15.5 µM) | 12 (≈ 7.44 µM) | 50 (≈ 31 µM) | 6 (≈ 3.72 µM) | – | – | – | – | – |
| CC[C@H](C)[C@H](N)C(=O)N[C@@H](CC(C)C)C(=O)N1CCC[C@H]1C(=O)N[C@@H](Cc1c[nH]c2ccccc12)C(=O)N[C@@H](CCCCN)C(=O)N[C@@H](Cc1c[nH]c2ccccc12)C(=O)N1CCC[C@H]1C(=O)N[C@@H](Cc1c[nH]c2ccccc12)C(=O)N[C@@H](Cc1c[nH]c2ccccc12)C(=O)N1CCC[C@H]1C(=O)N[C@@H](Cc1c[nH]c2ccccc12)C(=O)N[C@@H](CCCNC(=N)N)C(=O)N[C@@H](CCCNC(=N)N)C(N)=O [Indolicidin, ILPWKWPWWPWRR-NH2, reference compound] | 31 (≈ 16.3 µM) | – | 8 (≈ 4.2 µM) | – | – | – | – | – | 31 (≈ 16.3 µM) | 16 (≈ 8.39 µM) | 16 (≈ 8.39 µM) | 8 (≈ 4.2 µM) | 62 (≈ 32.5 µM) |
| CC[C@H](C)[C@H](NC(=O)[C@H](CCCNC(=N)N)NC(=O)[C@H](CC(C)C)NC(=O)[C@H](CCC(N)=O)NC(=O)[C@@H](N)C(C)C)C(=O)N[C@@H](CCCNC(=N)N)C(=O)N[C@H](C(=O)N[C@@H](CCCNC(=N)N)C(=O)N[C@H](C(=O)N[C@H](C(=O)N[C@@H](CCCNC(=N)N)C(=O)N[C@@H](CCCCN)C(N)=O)[C@@H](C)CC)C(C)C)C(C)C [HH9, VQLRIRVRVIRK] (H-VQLRIRVRVIRK-NH2; N-terminus assumed) | 6 (≈ 3.91 µM) | 12 (≈ 7.82 µM) | – | 12 (≈ 7.82 µM) | 6 (≈ 3.91 µM) | 1.6 (≈ 1.04 µM) | 6 (≈ 3.91 µM) | 3 (≈ 1.95 µM) | – | – | – | – | – |
